# Source: paper PMC10961714, “Novel chemotype NLRP3 inhibitors that target the CRID3-binding pocket with high potency” (Life Science Alliance, 2024)
# Legend:
# NLRP3 = target: T1, NLRP3 (Homo sapiens, UniProt Q96P20); experiment: NanoBRET target engagement (tracer displacement) in live HEK293 cells; type: cell-based
# T1 construct: full-length NLRP3-Nanoluc fusion protein
# carbonic anhydrase II = target: T2, carbonic anhydrase II (Homo sapiens, UniProt P00918); experiment: p-NPA esterase activity assay with […] compound; type: biochemical
# T2 construct: gene CA2; CA II (C6165, Sigma-Aldrich)
# carbonic anhydrase I = target: T3, carbonic anhydrase I (Homo sapiens, UniProt P00915); experiment: p-NPA esterase activity assay with […] compound; type: biochemical
# T3 construct: gene CA1; recombinant carbonic anhydrase I (C4396, Sigma-Aldrich)
# T3 sequence (P00915 2-261): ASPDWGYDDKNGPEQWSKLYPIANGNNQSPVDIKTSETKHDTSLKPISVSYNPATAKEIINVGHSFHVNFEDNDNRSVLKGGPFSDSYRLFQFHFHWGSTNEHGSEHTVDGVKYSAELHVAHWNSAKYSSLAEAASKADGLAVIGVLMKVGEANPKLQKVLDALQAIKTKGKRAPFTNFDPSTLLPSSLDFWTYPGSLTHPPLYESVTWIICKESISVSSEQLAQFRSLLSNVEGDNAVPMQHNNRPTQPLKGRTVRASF
# T1 sequence (Q96P20 whole entry, the tested form may be a part): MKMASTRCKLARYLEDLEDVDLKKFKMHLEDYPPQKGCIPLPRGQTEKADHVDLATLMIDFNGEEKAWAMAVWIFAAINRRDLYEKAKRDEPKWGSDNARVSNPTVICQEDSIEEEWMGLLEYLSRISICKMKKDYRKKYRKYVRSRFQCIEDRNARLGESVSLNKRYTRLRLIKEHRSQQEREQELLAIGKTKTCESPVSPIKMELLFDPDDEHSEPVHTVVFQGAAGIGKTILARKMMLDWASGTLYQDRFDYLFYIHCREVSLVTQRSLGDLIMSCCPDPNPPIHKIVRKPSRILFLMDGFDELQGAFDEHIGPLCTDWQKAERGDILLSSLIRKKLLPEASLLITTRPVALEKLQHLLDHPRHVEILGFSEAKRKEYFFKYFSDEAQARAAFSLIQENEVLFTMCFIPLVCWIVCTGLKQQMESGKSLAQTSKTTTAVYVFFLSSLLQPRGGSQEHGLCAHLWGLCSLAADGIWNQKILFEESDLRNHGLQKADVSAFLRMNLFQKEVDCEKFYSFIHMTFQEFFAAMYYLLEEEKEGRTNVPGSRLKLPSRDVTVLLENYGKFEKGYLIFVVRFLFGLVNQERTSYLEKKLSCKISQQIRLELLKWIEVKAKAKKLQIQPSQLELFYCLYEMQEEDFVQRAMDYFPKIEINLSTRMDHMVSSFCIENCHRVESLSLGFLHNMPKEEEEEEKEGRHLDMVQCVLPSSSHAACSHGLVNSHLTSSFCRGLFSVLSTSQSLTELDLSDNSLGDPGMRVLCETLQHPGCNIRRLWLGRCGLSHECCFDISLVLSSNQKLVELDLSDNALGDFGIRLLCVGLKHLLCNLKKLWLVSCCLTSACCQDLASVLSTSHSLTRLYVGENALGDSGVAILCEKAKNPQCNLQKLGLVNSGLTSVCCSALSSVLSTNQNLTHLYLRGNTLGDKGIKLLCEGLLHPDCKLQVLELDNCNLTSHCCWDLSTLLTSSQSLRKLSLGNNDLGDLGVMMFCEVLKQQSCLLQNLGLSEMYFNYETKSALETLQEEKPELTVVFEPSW
IC50 (NLRP3) [nM],Structure (SMILES),p-NPA esterase activity assay with 100 μM compound (carbonic anhydrase II),p-NPA esterase activity assay with 100 μM compound (carbonic anhydrase I)
131,CC(C)c1nn(CC(=O)N[C@@H]2CCCN(CC3CC3)C2)c(=O)c2cc3sc(Cl)cc3n12 [NIC-12],,
212,CC(C)(O)c1nn(CC(=O)Nc2ccncn2)c(=O)c2cc3sc(Cl)cc3n12 [NIC-11],,
,CC(C)(O)c1coc(S(=O)(=O)NC(=O)Nc2c3c(cc4c2CCC4)CCC3)c1 [CRID3],We confirmed this off-target activity of CRID3 in our studies,observed significant inhibition of the related enzyme carbonic anhydrase I as well
